As a reminder, the pIC50 is −log10 of the IC50, conventionally taken in molar units. As usually defined, the melting point is the temperature of the solid-liquid transition.

Results on 9 compounds are retold here after patent publication US6630497B2, “1-phenyl imidazol-2-one biphenylmethyl compounds for treatment of circulatory disorders” (G.D. Searle & Co, priority 1993, dated 2003).

Structures are written as SMILES. pIC50: −log10 of the molar value.

Series [1] deals with smooth muscle angiotensin II receptor. Briefly: Assay A: Angiotensin II Binding Activity (125I-AII displacement, rat uterine membrane preparation). Particulars: 50% displacement of specifically bound 125I-AII, rat uterine membranes, 25° C., 60 min. As to the method: Compounds of the invention were tested for ability to bind to the smooth muscle angiotensin II receptor using a rat uterine membrane preparation. […] Other chemicals were obtained from Sigma Chemical Co. This assay was carried out according to the method of Douglas et al [Endocrinology, 106, 120-124 (1980)]. Rat uterine membranes were prepared from fresh tissue. All procedures were carried out at 4° C. Uteri were stripped of fat and homogenized in phosphate-buffered saline at pH 7.4 containing 5 mM EDTA. The homogenate was centrifuged at 1500×g for 20 min., and the supernatant was recentrifuged at 100,000×g for 60 min. The pellet was resuspended in buffer consisting of 2 mM EDTA and 50 mM Tris-HCl (pH 7.5) to a final protein concentration of 4 mg/ml. […] The reaction was initiated by the addition of membrane protein and the mixture was incubated at 25° C. for 60 min. The incubation was terminated with ice-cold 50 mM Tris-HCl (pH 7.5) and the mixture was filtered to separate membrane-bound labelled peptide from the free ligand. The incubation tube and filter were washed with ice-cold buffer. Filters were assayed for radioactivity in a Micromedic gamma counter. Nonspecific binding was defined as binding in the presence of 10 μM of unlabelled AII. Specific binding was calculated as total binding minus nonspecific binding.
Binding data were analyzed by a nonlinear least-squares curve fitting program.

The subject of series [2] is pressor response to AII. As to the kind of experiment: Assay C: In Vivo Intragastric Pressor Assay Response for AII Antagonists. Particulars: rat, 3 mg/kg intragastric (i.g.); for Assay C Duration: duration of inhibition of AII pressor response, measured up to 180 min; for Assay C Inhibition (%): inhibition of pressor response to 30 ng/kg AII bolus. The protocol: Male Sprague-Dawley rats weighing 225-300 grams were anesthetized with methohexital (30 mg/kg, i.p.) and catheters were implanted into the femoral artery and vein. The catheters were tunneled subcutaneously to exit dorsally, posterior to the head and between the scapulae. The catheters were filled with heparin (1000 units/ml of saline). The rats were returned to their cage and allowed regular rat chow and water ad libitum. After full recovery from surgery (3-4 days), rats were placed in Lucite holders and the arterial line was connected to a pressure transducer. Arterial pressure was recorded on a Gould polygraph (mmHg). Angiotensin II was administered as a 30 ng/kg bolus via the venous catheter delivered in a 50 μl volume with a 0.2 ml saline flush. The pressor response in mm Hg was measured by the difference from pre-injection arterial pressure to the maximum pressure achieved. The AII injection was repeated every 10 minutes until three consecutive injections yielded responses within 4 mmHg of each other. These three responses were then averaged and represented the control response to AII. The test compound was suspended in 0.5% methylcellulose in water and was administered by gavage. The volume administered was 2 ml/kg body weight. The standard dose was 3 mg/kg. Angiotensin II bolus injections were given at 30, 45, 60, 75, 120, 150, and 180 minutes after gavage. The pressor response to AII was measured at each time point. The rats were then returned to their cage for future testing. A minimum of 3 days was allowed between tests. Percent inhibition was calculated for each time point following gavage by the following formula: [(Control Response—Response at time point)/Control Response] ×100.

For series [3], the system named is rabbit aortic rings. As to the kind of experiment: Assay B: In Vitro Vascular Smooth Muscle Response for AII. Particulars: AII contraction. More on the design: key: NC = Non-competitive Antagonist. The format is cell-based. The protocol:
The compounds of the invention were tested for antagonist activity in rabbit aortic rings. Male New Zealand white rabbits (2-2.5 kg) were sacrificed using an overdose of pentobarbital and exsanguinated via the carotid arteries. The thoracic aorta was removed, cleaned of adherent fat and connective tissue and then cut into 3-mm ring segments. The endothelium was removed from the rings by gently sliding a rolled-up piece of filter paper into the vessel lumen. The rings were then mounted in a water-jacketed tissue bath, maintained at 37° C., between moveable and fixed ends of a stainless steel wire with the moveable end attached to an FT03 Grass transducer coupled to a Model 7D Grass Polygraph for recording isometric force responses. The bath was filled with 20 ml of oxygenated (95% oxygen/5% carbon dioxide) Krebs solution of the following composition (mM): […], 1.2 NaH2P04, 1.2 MgS04, 2.5 CaCl2, and 11.4 glucose. The preparations were equilibrated for one hour before approximately one gram of passive tension was placed on the rings. Angiotensin II concentration-response curves were then recorded (3×10^−10 to 1×10^−5 M). […] The effectiveness of the test compound was expressed in terms of pA2 values and were calculated according to H. O. Schild [Br. J. Pharmacol. Chemother., 2,189-206 (1947)]. […] Each test antagonist was evaluated in aorta rings from two rabbits.

On to `CCCCc1cn(-c2c(OC)cccc2OC)c(=O)n1Cc1ccc(-c2ccccc2-c2nnn[nH]2)cc1` [Example 3, 1-(2,6-dimethoxyphenyl)-4-butyl-1,3-dihydro-3-[2′-(1H -tetrazol-5-yl)[1,1′-biphenyl]-4-ylmethyl]-2H-imidazol-2-one], for which the melting point was 189 to 191 °C (dec.). Also, the pIC50 in series [1] was 8.01. In series [2], the “Assay C Duration” value was greater than 180 min and the “Assay C Inhibition (%)” value came to 25%.
In turn, `CCCCc1cn(-c2ccccc2C(C)C)c(=O)n1Cc1ccc(-c2ccccc2-c2nnn[nH]2)cc1` [Example 2, 1-(2-isopropylphenyl)-4-butyl-1,3-dihydro-3-[2′-(1H -tetrazol-5-yl)[1,1′-biphenyl]-4-ylmethyl]-2H-imidazol-2-one] displayed a melting point of 167 to 168 °C. The compound also showed a pIC50 in series [1] of 7.01. Also, in series [3], the “Assay B pA2: type of antagonism” value was “NC”. In series [2], the “Assay C Duration” value was greater than 180 min and the “Assay C Inhibition (%)” value came out at 70%.
The compound `CCCCc1cn(-c2c(C)cc(C(C)(C)C)cc2C)c(=O)n1Cc1ccc(-c2ccccc2-c2nnn[nH]2)cc1` [Example 9, 1-(2,6-dimethyl-4-tertbutylphenyl) -4-butyl-1,3-dihydro-3-[2′-(1H-tetrazol-5-yl)[1,1′-biphenyl]-4-ylmethyl]-2H -imidazol-2-one] had a melting point of 134 to 135 °C. Further, in series [1], the pIC50 is 6.57.
Consider `CCCCc1cn(-c2c(C)cccc2C)c(=O)n1Cc1ccc(-c2ccccc2-c2nnn[nH]2)cc1` [Example 5, 1-(2,6-dimethylphenyl)-4-butyl-1,3-dihydro-3-[2′-(1H-tetrazol-5-yl)[1,1′-biphenyl]-4-ylmethyl]-2H -imidazol-2-one], for which the melting point is 177 to 178 °C (dec.). This compound had a pIC50 in series [1] of 8.20. Besides, in series [2], the “Assay C Duration” value was greater than 180 min and the “Assay C Inhibition (%)” value is given as 40%.
On to `CCCCc1cn(-c2c(CC)cccc2CC)c(=O)n1Cc1ccc(-c2ccccc2-c2nnn[nH]2)cc1` [Example 6, 1-(2,6-diethylphenyl) -4-butyl-1,3-dihydro-3-[2′-(1H -tetrazol-5-yl) [1,1′-biphenyl]-4-ylmethyl]-2H-imidazol-2-one], for which the melting point was 198 to 200 °C (dec.). The compound further had a pIC50 in series [1] of 7.48. Also, in series [2], the “Assay C Inhibition (%)” value is on record as less than 20%.
Take `CCCCc1cn(-c2ccccc2CC)c(=O)n1Cc1ccc(-c2ccccc2-c2nnn[nH]2)cc1` [Example 1, 1-(2-ethylphenyl)-4-butyl-1,3-dihydro-3-[2′-(1H-tetrazol-5-yl)[1,1′-biphenyl]-4-ylmethyl]-2H-imidazol-2-one]: the melting point was in the range of 188 to 189 °C. In addition, the pIC50 in series [1] is 7.85. Also, the “Assay B pA2: type of antagonism” value in series [3] is reported as “NC”. The “Assay C Inhibition (%)” value in series [2] is 20%/—.
In turn, `CCCCc1cn(-c2c(C)cccc2Cl)c(=O)n1Cc1ccc(-c2ccccc2-c2nnn[nH]2)cc1` [Example 4, 1-(2-chloro-6-methylphenyl) -4-butyl-1,3-dihydro-3-[2′-(1H-tetrazol-5-yl) [1,1′-biphenyl]-4-ylmethyl]-2H -imidazol-2-one] showed a melting point of 163 to 164 °C. Also, the pIC50 in series [1] was 7.89. Moreover, in series [2], the “Assay C Duration” value is greater than 180 min and the “Assay C Inhibition (%)” value is 35%.
On to `CCCCc1cn(-c2c(C(C)C)cccc2C(C)C)c(=O)n1Cc1ccc(-c2ccccc2-c2nnn[nH]2)cc1` [Example 7, 1-(2,6-diisopropylphenyl)-4-butyl-1,3-dihydro-3-[2′-(1H-tetrazol-5-yl)[1,1′-biphenyl]-4-ylmethyl]-2H -imidazol-2-one], for which the melting point was 202 to 203 °C (dec.). The pIC50 in series [1] was 6.72.
With `CCCCc1cn(-c2c(C)cc(C)cc2C)c(=O)n1Cc1ccc(-c2ccccc2-c2nnn[nH]2)cc1` [Example 8, 1-(2,4,6-trimethylphenyl)-4-butyl-1,3-dihydro-3-[2′-(1H-tetrazol-5-yl)[1,1′-biphenyl]-4-ylmethyl]-2H -imidazol-2-one], the melting point was 187 to 188 °C (dec.). In addition, the pIC50 in series [1] is 7.52. For the same compound, in series [2], the “Assay C Duration” value is greater than 180 min and the “Assay C Inhibition (%)” value was 50%.
